The source made the active and inactive calls. How the calls were made is not given here.
Tested on: CCRIS mutagenicity, Ames/micronucleus/aberration tests
Test: CCRIS mutagenicity studies
[1] = Test System: AMES SALMONELLA TYPHIMURIUM, Strain/Indicator: TA98, Metabolic Activation: NONE, Method: STANDARD PLATE
[2] = Test System: AMES SALMONELLA TYPHIMURIUM, Strain/Indicator: TA100, Metabolic Activation: NONE, Method: STANDARD PLATE
[3] = Test System: AMES SALMONELLA TYPHIMURIUM, Strain/Indicator: TA1535, Metabolic Activation: NONE, Method: STANDARD PLATE
[4] = Test System: AMES SALMONELLA TYPHIMURIUM, Strain/Indicator: TA1537, Metabolic Activation: NONE, Method: STANDARD PLATE
[5] = Test System: AMES SALMONELLA TYPHIMURIUM, Strain/Indicator: TA1538, Metabolic Activation: NONE, Method: STANDARD PLATE
[6] = Test System: AMES SALMONELLA TYPHIMURIUM, Strain/Indicator: TA98, Metabolic Activation: NONE, Method: PREINCUBATION
[7] = Test System: AMES SALMONELLA TYPHIMURIUM, Strain/Indicator: TA100, Metabolic Activation: RAT, LIVER, S-9, AROCLOR 1254, Method: STANDARD PLATE
[8] = Test System: AMES SALMONELLA TYPHIMURIUM, Strain/Indicator: TA98, Metabolic Activation: RAT, LIVER, S-9, AROCLOR 1254, Method: STANDARD PLATE
[9] = Test System: AMES SALMONELLA TYPHIMURIUM, Strain/Indicator: TA1535, Metabolic Activation: RAT, LIVER, S-9, AROCLOR 1254, Method: STANDARD PLATE
[10] = Test System: AMES SALMONELLA TYPHIMURIUM, Strain/Indicator: TA1538, Metabolic Activation: RAT, LIVER, S-9, AROCLOR 1254, Method: STANDARD PLATE

## Nc1cc(-c2ccncc2)c[nH]c1=O
Test System: AMES SALMONELLA TYPHIMURIUM, Strain/Indicator: TA97, Metabolic Activation: NONE
  mutagenic call: inactive; negative
Test System: AMES SALMONELLA TYPHIMURIUM, Strain/Indicator: TA97, Metabolic Activation: S-9
  mutagenic call: inactive; negative
Test System: AMES SALMONELLA TYPHIMURIUM, Strain/Indicator: TA98, Metabolic Activation: NONE
  mutagenic call: inactive; negative
[1]
  mutagenic call: inactive; negative
Test System: AMES SALMONELLA TYPHIMURIUM, Strain/Indicator: TA98, Metabolic Activation: RAT, LIVER, S-9, Method: STANDARD PLATE
  mutagenic call: inactive; negative
Test System: AMES SALMONELLA TYPHIMURIUM, Strain/Indicator: TA98, Metabolic Activation: S-9
  mutagenic call: inactive; negative
[2]
  mutagenic call: inactive; negative
Test System: AMES SALMONELLA TYPHIMURIUM, Strain/Indicator: TA100, Metabolic Activation: RAT, LIVER, S-9, Method: STANDARD PLATE
  mutagenic call: inactive; negative
Test System: AMES SALMONELLA TYPHIMURIUM, Strain/Indicator: TA100, Metabolic Activation: S-9
  mutagenic call: inactive; negative
Test System: AMES SALMONELLA TYPHIMURIUM, Strain/Indicator: TA102, Metabolic Activation: NONE
  mutagenic call: inactive; negative
Test System: AMES SALMONELLA TYPHIMURIUM, Strain/Indicator: TA102, Metabolic Activation: S-9
  mutagenic call: inactive; negative
[3]
  mutagenic call: inactive; negative
Test System: AMES SALMONELLA TYPHIMURIUM, Strain/Indicator: TA1535, Metabolic Activation: RAT, LIVER, S-9, Method: STANDARD PLATE
  mutagenic call: inactive; negative
[4]
  mutagenic call: inactive; negative
Test System: AMES SALMONELLA TYPHIMURIUM, Strain/Indicator: TA1537, Metabolic Activation: RAT, LIVER, S-9, Method: STANDARD PLATE
  mutagenic call: inactive; negative
[5]
  mutagenic call: inactive; negative
Test System: AMES SALMONELLA TYPHIMURIUM, Strain/Indicator: TA1538, Metabolic Activation: RAT, LIVER, S-9, Method: STANDARD PLATE
  mutagenic call: inactive; negative

## CC(O)/C=C/C=O (configuration not stated)
Test System: AMES SALMONELLA TYPHIMURIUM, Strain/Indicator: TA104, Metabolic Activation: NONE, Method: PREINCUBATION
  mutagenic call: active; positive

## O=[N+]([O-])c1ccc2c(c1)C(O)c1ccccc1-2 (configuration not stated)
[6]
  mutagenic call: active; positive
Test System: AMES SALMONELLA TYPHIMURIUM, Strain/Indicator: TA98, Metabolic Activation: S-9, Method: PREINCUBATION
  mutagenic call: active; positive

## COc1ccc2oc([N+](=O)[O-])cc2c1N(CCCl)CCCl
Test System: AMES SALMONELLA TYPHIMURIUM, Strain/Indicator: TA100(NR), Metabolic Activation: NONE, Method: STANDARD PLATE
  mutagenic call: active; positive
Test System: AMES SALMONELLA TYPHIMURIUM, Strain/Indicator: TA100(NR), Metabolic Activation: RAT, LIVER, S-9, AROCLOR 1254, Method: STANDARD PLATE
  mutagenic call: active; positive
[2]
  mutagenic call: active; positive
[7]
  mutagenic call: active; positive

## CSCC[C@H](NC(=O)COc1ccc(Cl)cc1Cl)C(=O)O
Test System: AMES SALMONELLA TYPHIMURIUM, Strain/Indicator: TA97, Metabolic Activation: RAT, LIVER, S-9, AROCLOR 1254, Method: STANDARD PLATE
  mutagenic call: inactive; negative
Test System: AMES SALMONELLA TYPHIMURIUM, Strain/Indicator: TA97, Metabolic Activation: WOODCHUCK, LIVER, S-9, 3-METHYLCHOLANTHRENE, Method: STANDARD PLATE
  mutagenic call: inactive; negative
[8]
  mutagenic call: inactive; negative
Test System: AMES SALMONELLA TYPHIMURIUM, Strain/Indicator: TA98, Metabolic Activation: WOODCHUCK, LIVER, S-9, 3-METHYLCHOLANTHRENE, Method: STANDARD PLATE
  mutagenic call: inactive; negative
[7]
  mutagenic call: inactive; negative
Test System: AMES SALMONELLA TYPHIMURIUM, Strain/Indicator: TA100, Metabolic Activation: WOODCHUCK, LIVER, S-9, 3-METHYLCHOLANTHRENE, Method: STANDARD PLATE
  mutagenic call: inactive; negative
[9]
  mutagenic call: inactive; negative
Test System: AMES SALMONELLA TYPHIMURIUM, Strain/Indicator: TA1535, Metabolic Activation: WOODCHUCK, LIVER, S-9, 3-METHYLCHOLANTHRENE, Method: STANDARD PLATE
  mutagenic call: inactive; negative
[10]
  mutagenic call: inactive; negative
Test System: AMES SALMONELLA TYPHIMURIUM, Strain/Indicator: TA1538, Metabolic Activation: WOODCHUCK, LIVER, S-9, 3-METHYLCHOLANTHRENE, Method: STANDARD PLATE
  mutagenic call: inactive; negative

## BrCc1ccc2c3c(cccc13)-c1ccccc1-2
[1]
  mutagenic call: active; positive
[2]
  mutagenic call: active; positive

## CCCOC(=O)c1cc(O)c(O)c(O)c1
End Point: IN VITRO CHROMOSOMAL ABERRATIONS, Test System: CHO CELLS, Metabolic Activation: RAT, LIVER, S-9, AROCLOR 1254
  mutagenic call: inactive; negative
Test System: AMES SALMONELLA TYPHIMURIUM, Strain/Indicator: TA97, Metabolic Activation: NONE, Method: PREINCUBATION
  mutagenic call: inactive; negative
Test System: AMES SALMONELLA TYPHIMURIUM, Strain/Indicator: TA97, Metabolic Activation: S-9, Method: PREINCUBATION
  mutagenic call: inactive; negative
[6]
  mutagenic call: inactive; negative
[1]
  mutagenic call: inactive; negative
Test System: AMES SALMONELLA TYPHIMURIUM, Strain/Indicator: TA98, Metabolic Activation: RAT LIVER S-9, Method: PREINCUBATION
  mutagenic call: inactive; negative
[8]
  mutagenic call: inactive; negative
Test System: AMES SALMONELLA TYPHIMURIUM, Strain/Indicator: TA100, Metabolic Activation: NONE, Method: PREINCUBATION
  mutagenic call: inactive; negative
[2]
  mutagenic call: inactive; negative
Test System: AMES SALMONELLA TYPHIMURIUM, Strain/Indicator: TA100, Metabolic Activation: RAT LIVER S-9, Method: PREINCUBATION
  mutagenic call: inactive; negative
[7]
  mutagenic call: inactive; negative
Test System: AMES SALMONELLA TYPHIMURIUM, Strain/Indicator: TA102, Metabolic Activation: NONE, Method: PREINCUBATION
  mutagenic call: inactive; negative
Test System: AMES SALMONELLA TYPHIMURIUM, Strain/Indicator: TA102, Metabolic Activation: S-9, Method: PREINCUBATION
  mutagenic call: active; positive
[3]
  mutagenic call: inactive; negative
[9]
  mutagenic call: inactive; negative
[4]
  mutagenic call: inactive; negative
Test System: AMES SALMONELLA TYPHIMURIUM, Strain/Indicator: TA1537, Metabolic Activation: RAT, LIVER, S-9, AROCLOR 1254, Method: STANDARD PLATE
  mutagenic call: inactive; negative
[5]
  mutagenic call: inactive; negative
[10]
  mutagenic call: inactive; negative
Test System: Ames Salmonella typhimurium, Strain/Indicator: TA102, Metabolic Activation: None, Method: Preincubation
  mutagenic call: inactive; negative
Test System: Ames Salmonella typhimurium, Strain/Indicator: TA102, Metabolic Activation: Rat, Liver, S-9, Aroclor 1254 in 0.154 M KCl, Method: Preincubation
  mutagenic call: inactive; negative
Test System: E. COLI, Strain/Indicator: WP2, Metabolic Activation: NONE, Method: STANDARD PLATE
  mutagenic call: inactive; negative
Test System: E. COLI, Strain/Indicator: WP2, Metabolic Activation: RAT, LIVER, S-9, AROCLOR 1254, Method: STANDARD PLATE
  mutagenic call: inactive; negative

## Cc1cccc(C)c1C
Test System: AMES SALMONELLA TYPHIMURIUM, Strain/Indicator: TA97A, Metabolic Activation: NONE, Method: STANDARD PLATE
  mutagenic call: active; positive
Test System: AMES SALMONELLA TYPHIMURIUM, Strain/Indicator: TA97A, Metabolic Activation: RAT, LIVER, S-9, AROCLOR 1254, Method: STANDARD PLATE
  mutagenic call: inactive; negative
[1]
  mutagenic call: active; positive
[8]
  mutagenic call: inactive; negative
[2]
  mutagenic call: active; positive
[7]
  mutagenic call: inactive; negative
Test System: AMES SALMONELLA TYPHIMURIUM, Strain/Indicator: TA102, Metabolic Activation: NONE, Method: STANDARD PLATE
  mutagenic call: active; positive
Test System: AMES SALMONELLA TYPHIMURIUM, Strain/Indicator: TA102, Metabolic Activation: RAT, LIVER, S-9, AROCLOR 1254, Method: STANDARD PLATE
  mutagenic call: inactive; negative
